Experimental data: patent publication US20120015953A1, “METHODS AND COMPOSITIONS FOR THE TREATMENT OF ALLERGY” (priority 2010, published 2012)

Tests used:
[1] = test system: passively sensitized guinea pigs; test: acute phase clinical score of conjunctivitis, passively sensitized guinea pigs challenged with ovalbumin; assay type: in vivo, guinea pig; settings: for effect on olopatadine's inhibition of the acute clinical score: H4 antagonist topical once daily, 0.2% olopatadine 5 minutes later, antigen challenge 60 minutes after dose, scored 30 min after challenge (FIGS. 1, 4); for effect on olopatadine's acute phase effects under different dosing regimens: administered before, after, or in the same drop as 0.2% olopatadine (FIGS. 3, 6); for effect on acute phase clinical score on their own: compound alone, topical, 1 hour prior to challenge
Method: (§1) H1 and H4 antagonists were evaluated using an in vivo assay to determine the effect of the H4 antagonist on a co-administered H1 antagonist. Male Hartley VAF outbred guinea pigs were passively sensitized to ovalbumin by a single OD subconjunctival injection of undiluted guinea pig anti-ovalbumin antiserum 24 hours before OD topical challenge with 500 μg ovalbumin in saline. Control animals were injected with saline only and challenged with ovalbumin. To determine acute phase drug efficacy, 30 min after challenge animals were clinically scored by a masked observer for severity of signs of conjunctivitis based on a standard scale.
(§2) Test compounds were administered topically 1 hour prior to challenge. Twenty-four hours after challenge, animals were euthanized and conjunctivae were harvested for determination of tissue eosinophil peroxidase (EPO) concentration as a marker of allergic inflammation and late phase effects. Homogenates of freshly collected tissues were prepared by shaking the tissues in 2 mL round-bottom tubes containing 0.5 mL of homogenization buffer (50 mM Tris HCl, pH 8.0, 6 mM KBr) and one 5-mm stainless steel bead on a Qiagen TissueLyser at 30 Hz for 5 min. Homogenates were frozen and thawed once, then centrifuged at 10,000 rpm for 5 min. EPO activity in supernatants was measured by reacting diluted homogenates with a solution of 6 mM o-phenylenediamine substrate and 8.8 mM H2O2 in homogenization buffer for 3 min. The reaction was stopped with 4M H2SO4 and absorbances were measured at […] on a spectrophotometry plate reader. Total EPO in samples was calculated from a standard curve of recombinant human EPO in each assay. EPO activity was normalized to total protein concentration (Pierce BCA assay) in supernatants. Background EPO activity was determined from the unsensitized, antigen-challenged control group. Percent inhibition was calculated from the sensitized, antigen-challenged, vehicle-treated control group in each experiment. Ovalbumin-injected animals dosed topically with 0.1% w/v dexamethasone (dex) served as positive control. Groups were compared by ANOVA with Dunnett's or Tukey's post-hoc tests where appropriate with significance assigned at the 95% confidence level.

[2] = test system: tissue eosinophil peroxidase (EPO); test: late phase allergic response, conjunctival tissue eosinophil peroxidase (EPO) 24 h after challenge; assay type: in vivo, guinea pig; settings: for inhibition of late phase allergic response: compound alone, EPO 24 hours after challenge (FIGS. 2, 5); for inhibition of late phase response with concomitant olopatadine: concomitant dosing with 0.2% olopatadine (FIGS. 2, 5)
Method: as §1, §2

`CN1CCN(c2nc3ccc(C(F)(F)F)cc3n3cnnc23)CC1` [Compound 1, 4-(4-methylpiperazin-1-yl)-8-(trifluoromethyl)-[1,2,4]triazolo[4,3-a]quinoxaline] was tested, and the “effect on olopatadine's inhibition of the acute clinical score” value [1] was “dose dependent effect on the inhibition of the acute clinical score relative to olopatadine alone”, the “effect on olopatadine's acute phase effects under different dosing regimens” value [1] was “reduction of olopatadine's acute phase effects and dose dependency” and the “effect on acute phase clinical score on their own” value [1] was “Neither Compound 1 nor Compound 2 demonstrate any effect on acute phase clinical score on their own”. For the same compound, the “inhibition of late phase allergic response” value [2] was “very good inhibitors of late phase allergic response” and the “inhibition of late phase response with concomitant olopatadine” value [2] was “slight increase in the inhibition of late phase response”.

With `Clc1ccc2nc(N3CCNCC3)c3nnnn3c2c1` [Compound 2, 8-chloro-4-(piperazin-1-yl)tetrazolo[1,5-a]quinoxaline] the “effect on olopatadine's inhibition of the acute clinical score” value [1] was “does not show suppression of olopatadine's acute phase effects”, the “effect on olopatadine's acute phase effects under different dosing regimens” value [1] was “These effects on acute phase response are not seen” and the “effect on acute phase clinical score on their own” value [1] was “Neither Compound 1 nor Compound 2 demonstrate any effect on acute phase clinical score on their own”. The “inhibition of late phase allergic response” value [2] was “very good inhibitors of late phase allergic response” and the “inhibition of late phase response with concomitant olopatadine” value [2] was “slight increase in the inhibition of late phase response”.
